We go through 62 molecules from the C3SDB collision cross section collection.

Each structure is given as a SMILES string. Structures can show the parent of a compound that is named as a salt.

For this series the following is noted: instrument: TW, calibrated with polyalanine and drug standards.

Regarding `COC(=O)C1=C(C)NC(C)=C(C(=O)OC)C1c1ccccc1[N+](=O)[O-]` [NIFEDIPINE], the “collision cross section (N2)” value ([M+H-H2O]+) was found to be 169.4 Å². For `O=C(O)c1cccnc1Nc1cccc(C(F)(F)F)c1` [NIFLUMIC ACID], the “collision cross section (N2)” value ([M+H]+) came out at 159.4 Å². Turning to `O=C(O)C1CCCNC1` (stereo not drawn) [NIPECOTIC ACID], the “collision cross section (N2)” value ([M+H]+) amounted to 124.6 Å². As for `COC(=O)C1=C(C)NC(C)=C(C(=O)OCC(C)C)C1c1ccccc1[N+](=O)[O-]` (stereo not drawn) [NISOLDIPINE], where the note is “[M+H]+”, the “collision cross section (N2)” value amounted to 187.2 Å². Still for that read-out and setting: to `CN/C(=C\[N+](=O)[O-])NCCSCc1csc(CN(C)C)n1` [NIZATIDINE] belongs 169.1 Å²; to `COC(=O)Nc1nc2ccc(C(=O)c3cccs3)cc2[nH]1` [NOCODAZOLE], 168.7 Å²; to `C#C[C@]1(O)CC[C@H]2[C@@H]3CCC4=C(CCC(=O)C4)[C@H]3CC[C@@]21C` [NORETHYNODREL], 174.6 Å². As for `c1ccc2c(c1)[nH]c1cnccc12` [NORHARMAN], the “collision cross section (N2)” value ([M+H]+) was found to be 132.2 Å².

Take `N[C@@H](COCc1ccccc1)C(=O)O` [O-BENZYL-l-SERINE]: the “collision cross section (N2)” value ([M+H]+) is reported as 142.5 Å². Turning to `COC1=CC(=O)C(O)=C/C1=C\C=C\c1ccccc1` [OBTUSAQUINONE], the “collision cross section (N2)” value ([M+H]+) is listed as 155.1 Å².

On to `CC(C)CCCC(C)N` (stereo not drawn) [OCTODRINE], for which the “collision cross section (N2)” value ([M+H]+) came out at 134.7 Å². The same measure, in the same setting: for `CCCc1nc(C(C)(C)O)c(C(=O)OCc2oc(=O)oc2C)n1Cc1ccc(-c2ccccc2-c2nn[nH]n2)cc1` [OLMESARTAN MEDOXOMIL] the value was 225 Å²; for `CC(C)=CCc1c2c(c3occ(-c4ccc(O)cc4)c(=O)c3c1O)C=CC(C)(C)O2` [OSAJIN], 201.4 Å²; for `CCOC(=O)C1=C[C@@H](OC(CC)CC)[C@H](NC(C)=O)[C@@H](N)C1` [OSELTAMIVIR], 180.7 Å². For the molecule `COC[C@]12CN(C=O)C3[C@@H]4[C@H](OC)C1[C@]3(C1CC3(O)C(OC)C(O)C4(OC(C)=O)C1C3OC(=O)c1ccccc1)[C@@H](OC)C[C@H]2O` (stereo partly drawn) [OXONITINE], where the note is “[M+H]+”, the “collision cross section (N2)” value is given as 236.2 Å². Still for that read-out and setting: for `COc1ccc(C(=O)c2ccccc2)c(O)c1` [OXYBENZONE] the value was 146.5 Å²; for `CCCCC1C(=O)N(c2ccccc2)N(c2ccc(O)cc2)C1=O` (stereo not drawn) [OXYPHENBUTAZONE], 177.2 Å². Turning to `COc1ccc(C(C)=O)c(O)c1` [PAEONOL], the “collision cross section (N2)” value ([M+H]+) is on record as 124.9 Å².

Consider `CC(C)(CO)[C@@H](O)C(=O)NCCC(=O)NCCSSCCNC(=O)CCNC(=O)[C@H](O)C(C)(C)CO` [PANTETHINE], for which, where the note is “[M+H]+”, the “collision cross section (N2)” value was 222.5 Å². With `CC(C)(CO)[C@@H](O)C(=O)NCCC(=O)[O-]` [PANTOTHENIC ACID(d) Na salt], the “collision cross section (N2)” value ([M+H]+) was determined as 146.7 Å². As for `C=C1C(=O)O[C@@H]2[C@H]3O[C@]3(C)CC/C=C(\C)CC[C@@H]12` [PARTHENOLIDE], the “collision cross section (N2)” value ([M+H-H2O]+) came to 150.7 Å². On to `O=C(O)CN(CCN(CC(=O)O)CC(=O)O)CCN(CC(=O)O)CC(=O)O` [PENTETIC ACID], for which the “collision cross section (N2)” value ([M+H]+) is reported as 180.2 Å². Still for that read-out and setting: for `CC(=O)CCCCn1c(=O)c2c(ncn2C)n(C)c1=O` [PENTOXIFYLLINE] the value was 158.5 Å²; for `C=C(C)[C@H]1CC=C(C(=O)O)CC1` [PERILLIC ACID (-)], 124.9 Å²; for `OCCN1CCN(CCCN2c3ccccc3Sc3ccc(Cl)cc32)CC1` [PERPHENAZINE], 192 Å².

On to `CC(=O)OCC(OC(C)=O)C(OC(C)=O)C(OC(C)=O)C(OC(C)=O)C(COC(C)=O)OC(C)=O` (stereo not drawn) [PERSEITOL HEPTAACETATE], for which the “collision cross section (N2)” value ([M+Na]+) is 205.7 Å². For `CC(C)=CCc1c(O)cc2oc(C)cc(=O)c2c1O` [PEUCENIN], the “collision cross section (N2)” value ([M+H]+) came to 154.2 Å². As for `CC(=O)c1c(O)cc(O)cc1O` [PHLORACETOPHENONE], the “collision cross section (N2)” value ([M+H]+) was found to be 129 Å².

In the case of `COc1cc([C@@H]2c3cc4c(cc3[C@H](O)[C@H]3COC(=O)[C@@H]23)OCO4)cc(OC)c1OC` [PICROPODOPHYLLIN], the “collision cross section (N2)” value ([M+H-H2O]+) worked out at 190.9 Å².

With `O=c1[nH]c2ccccc2n1C1CCN(CCCC(c2ccc(F)cc2)c2ccc(F)cc2)CC1` [PIMOZIDE], the “collision cross section (N2)” value ([M+H]+) turned out to be 212.6 Å².

Turning to `CCn1cc(C(=O)O)c(=O)c2cnc(N3CCNCC3)nc21` [PIPEMIDIC ACID], the “collision cross section (N2)” value ([M+H]+) came to 171 Å².

Consider `Cc1nc2ccccn2c(=O)c1CCN1CCC(C(=O)c2ccc(F)cc2)CC1` [PIRENPERONE], for which the “collision cross section (N2)” value ([M+H]+) worked out at 196.8 Å².

As for `CC1=CC(=O)c2c(O)cccc2C1=O` [PLUMBAGIN], the “collision cross section (N2)” value ([M+H]+) is listed as 124.1 Å². `COc1cc([C@@H]2c3cc4c(cc3[C@H](O)[C@H]3COC(=O)[C@H]23)OCO4)cc(OC)c1OC` [PODOFILOX]: the “collision cross section (N2)” value amounted to 190.1 Å² ([M+H-H2O]+) and 189.6 Å² ([M+H]+). For `O=C(C1CCCCC1)N1CC(=O)N2CCc3ccccc3C2C1` (stereo not drawn) [PRAZIQUANTEL], for the setting “[M+H]+”, the “collision cross section (N2)” value amounted to 176.5 Å². Turning to `C[C@]12C=CC(=O)C=C1CC[C@@H]1[C@@H]2[C@@H](O)C[C@@]2(C)[C@H]1CC[C@]2(O)C(=O)COC(=O)CCC(=O)O` [PREDNISOLONE HEMISUCCINATE], for the setting “[M+H]+”, the “collision cross section (N2)” value was 210.3 Å².

As to `COC(=O)[C@]1(C)CC[C@]2(C)CC[C@]3(C)C4=CC=C5C(=CC(=O)C(O)=C5C)[C@]4(C)CC[C@@]3(C)[C@@H]2C1` [PRISTIMERIN], the “collision cross section (N2)” value ([M+H]+) came to 211.2 Å². Same read-out and setting: for `CCCN(CCC)S(=O)(=O)c1ccc(C(=O)O)cc1` [PROBENECID] the value was 161.4 Å²; for `CCN(CC)CCOC(=O)c1ccc(N)cc1` [PROCAINE], 154.7 Å². For `CNCCCC1c2ccccc2C=Cc2ccccc21` [PROTRYPTYLINE HYDROCHLORIDE], the “collision cross section (N2)” value ([M+H]+) is 162.8 Å². Still for that read-out and setting: for `CC(O)Cn1cnc2c1c(=O)n(C)c(=O)n2C` (stereo not drawn) [PROXYPHYLLINE] the value was 149.1 Å²; for `O=c1c(-c2ccc(O)cc2)coc2c([C@@H]3O[C@H](CO)[C@@H](O)[C@H](O)[C@H]3O)c(O)ccc12` [PUERARIN], 196.4 Å². As for `OCCOCCN1CCN(C2=Nc3ccccc3Sc3ccccc32)CC1` [QUETIAPINE], the “collision cross section (N2)” value ([M+H]+) was found to be 191.5 Å². On to `COC(=O)[C@H](Cc1ccccc1)NC(=O)/C(=C1\OC(=O)C(c2ccccc2)=C1O)c1ccccc1` [RHIZOCARPIC ACID], for which the “collision cross section (N2)” value ([M+H]+) stood at 212.8 Å².

For `CO[C@H]1/C=C/O[C@@]2(C)Oc3c(C)c(O)c4c(c3C2=O)C(=O)/C(=C/NN2CCN(C)CC2)C(=C4O)NC(=O)/C(C)=C\C=C\[C@H](C)[C@H](O)[C@@H](C)[C@@H](O)[C@@H](C)[C@H](OC(C)=O)[C@@H]1C` [RIFAMPIN], for the setting “[M+H]+”, the “collision cross section (N2)” value was found to be 280.3 Å². Same read-out and setting: for `COc1ccc(-c2c(O)c3c(OC)c4c(cc3oc2=O)OC(C)(C)C=C4)cc1` [ROBUSTIC ACID] the value was 190.3 Å²; for `CC[C@H]1OC(=O)[C@H](C)[C@@H](O[C@H]2C[C@@](C)(OC)[C@@H](O)[C@H](C)O2)[C@H](C)[C@@H](O[C@@H]2O[C@H](C)C[C@H](N(C)C)[C@H]2O)[C@](C)(O)C[C@@H](C)/C(=N\OCOCCOC)[C@H](C)[C@@H](O)[C@]1(C)O` [ROXITHROMYCIN], 276.1 Å²; for `C[C@@H]1O[C@@H](OC[C@H]2OC(Oc3c(-c4ccc(O)c(O)c4)oc4cc(O)cc(O)c4c3=O)[C@H](O)[C@@H](O)[C@@H]2O)[C@H](O)[C@H](O)[C@H]1O` (stereo partly drawn) [RUTOSIDE  (rutin)], 230.7 Å². The same measure, in the same setting: to `COc1ccc2c(c1O)-c1c(OC)c(OC)cc3c1[C@H](C2)N(C)CC3` [S-ISOCORYDINE (+)] belongs 181.9 Å²; to `C=CCc1ccc2c(c1)OCO2` [SAFROLE], 138.6 Å². In the case of `O=C(Nc1ccccc1)c1ccccc1O` [SALICYLANILIDE], the “collision cross section (N2)” value ([M+H]+) amounted to 143.9 Å². With `CC1=C2[C@H]3OC(=O)[C@@H](C)[C@@H]3CC[C@@]2(C)C=CC1=O` [SANTONIN], where the note is “[M+H]+”, the “collision cross section (N2)” value is given as 154.9 Å². Still for that read-out and setting: for `COc1ccc2c(c1)OC/C(=C\c1ccc(OC)c(O)c1)C2=O` [SAPPANONE A DIMETHYL ETHER] the value was 170.3 Å².

In the case of `COc1cc2ccc(=O)oc2cc1O` [SCOPOLETIN], where the note is “[M+H]+”, the “collision cross section (N2)” value was 133.6 Å². As for `CCC(C)(C)C(=O)O[C@H]1C[C@@H](C)C=C2C=C[C@H](C)[C@H](CC[C@@H]3C[C@@H](O)CC(=O)O3)[C@H]21` [SIMVASTATIN], where the note is “[M+H-H2O]+”, the “collision cross section (N2)” value was found to be 199.6 Å². Consider `CC(=O)O[C@H]1CC[C@@]2(C)[C@H](CC[C@@H]3[C@@H]2CC[C@]2(C)[C@@H]4[C@H](C[C@@H]32)O[C@]2(CC[C@@H](C)CO2)[C@H]4C)C1` [SMILAGENIN ACETATE], for which the “collision cross section (N2)” value ([M+H]+) came to 222.1 Å².

In the case of `CC1=CC(=O)[C@H]2C(C)(C)CCC[C@]2(C)[C@@]1(O)CCc1ccoc1` [SOLIDAGENONE], the “collision cross section (N2)” value ([M+H-H2O]+) is given as 170.6 Å².

For the molecule `COc1cc2ccc(=O)oc2c2ccoc12` [SPHONDIN], the “collision cross section (N2)” value ([M+H]+) turned out to be 139.9 Å².

For the molecule `O=C(CCCN1CCC2(CC1)C(=O)NCN2c1ccccc1)c1ccc(F)cc1` [SPIPERONE], the “collision cross section (N2)” value ([M+H]+) is given as 193.8 Å². On to `CC[C@H](/C=C/[C@@H](C)[C@H]1CC[C@H]2[C@@H]3CCC4=CC(=O)CC[C@]4(C)[C@H]3CC[C@]12C)C(C)C` [STIGMASTA-4,22-DIEN-3-ONE], for which the “collision cross section (N2)” value ([M+H]+) is given as 218.5 Å². Take `Nc1ccc(S(=O)(=O)NC(=O)c2ccccc2)cc1` [SULFABENZAMIDE]: the “collision cross section (N2)” value ([M+H]+) is given as 158.2 Å². Turning to `Nc1ccc(S(=O)(=O)Nc2ccc(Cl)nn2)cc1` [SULFACHLORPYRIDAZINE], the “collision cross section (N2)” value ([M+H]+) was determined as 158.2 Å².
